According to patent US20200024278A1, “COMPOSITION COMPRISING ANTIBIOTIC COMPOUND AND AN HETEROCYCLIC COMPOUND AND THEIR USE IN PREVENTING OR TREATING BACTERIAL INFECTIONS” (MUTABILIS, priority 2016, published 2020):
Where two headings read alike, the source gives them in different places.

Columns and labels:
Test in all cases: MIC, broth microdilution (CLSI), substance alone or ATB combined with compound at 4 or 8 μg/mL
ECO UFR39 = assay type: cell-based, E. coli; conditions: ECO UFR39; for MIC: Escherichia coli
Summary of the method: (§1)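 Potentiation format: antibiotic dilution series run with test compound held at 4 or 8 μg/mL, alongside compound-alone MICs. Broth microdilution per CLSI in ca-MHB, 16-20 h at 35° C.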

ECO 190317 = assay type: cell-based, E. coli; conditions: ECO 190317; for MIC: Escherichia coli
Summary of the method: as §1

SAU 29213 = assay type: cell-based, S. aureus; conditions: SAU 29213
Summary of the method: as §1

ECL P99 = assay type: cell-based, E. cloacae; conditions: ECL P99; for MIC: Enterobacter cloacae
Summary of the method: as §1

KPN BAA-1898 = assay type: cell-based, K. pneumoniae; conditions: KPN BAA-1898; for MIC: Klebsiella pneumoniae, BAA1898
Summary of the method: as §1

KPN 6299 = assay type: cell-based, K. pneumoniae; conditions: for MIC: Klebsiella pneumoniae
Summary of the method: as §1

[1] = antibiotic alone, read-out: MIC ATB alone

With `CC1(C)S[C@@H]2[C@H](NC(=O)[C@H](N)c3ccc(O)cc3)C(=O)N2[C@H]1C(=O)O` [AMX, Amoxicillin, reference compound] the “MIC ATB combined with Example 1 @8 μg/ml” value (ECO UFR39; with Example 1 @8 μg/ml) was less than 0.031 mg/L, the “MIC ATB combined with Example 1 @8 μg/ml” value (ECO UFR39; with Example 1 at 8 μg/ml) was less than 0.031 mg/L and the “MIC ATB combined with Example 7 @8 μgml” value (ECO UFR39; with Example 7 at 8 μg/ml) was less than 0.031 mg/L. The “MIC ATB combined with Example 9 @4 μg/ml” value (ECO UFR39; with Example 9 @4 μg/ml) was less than 0.031 mg/L, the “MIC ATB combined with Example 9 @4 μg/ml” value (ECO UFR39; with Example 9 at 4 μg/ml) was less than 0.031 mg/L and the “MIC ATB combined with Example 11 @8 μg/ml” value (ECO UFR39; with Example 11 at 8 μg/ml) was less than 0.031 mg/L. For the same molecule, the “MIC ATB combined with Example 12 @8 μg/ml” value (ECO UFR39; with Example 12 at 8 μg/ml) was less than 0.031 mg/L, the “MIC ATB combined with Example 13 @8 μg/ml” value (ECO UFR39; with Example 13 at 8 μg/ml) was less than 0.031 mg/L and the “MIC ATB combined with Example 14 @8 μg/ml” value (ECO UFR39; with Example 14 at 8 μg/ml) was less than 0.031 mg/L. For the same molecule, the “MIC ATB combined with Example 15 @4 μgml” value (ECO UFR39; with Example 15 at 4 μg/ml) was less than 0.031 mg/L, the “MIC ATB combined with Example 16 @4 μg/ml” value (ECO UFR39; with Example 16 at 4 μg/ml) was less than 0.031 mg/L and the MIC (ECO UFR39; [1]) was greater than 1020 mg/L. For the same molecule, the MIC (ECO UFR39; substance alone, read-out: MIC) was greater than 1020 mg/L, the “MIC ATB combined with Example 1 @8 μg/ml” value (ECO 190317; with Example 1 @8 μg/ml) was less than 0.031 mg/L and the “MIC ATB combined with Example 1 @8 μg/ml” value (ECO 190317; with Example 1 at 8 μg/ml) was less than 0.031 mg/L. For the same molecule, the “MIC ATB combined with Example 7 @8 μgml” value (ECO 190317; with Example 7 at 8 μg/ml) was less than 0.031 mg/L, the “MIC ATB combined with Example 9 @4 μg/ml” value (ECO 190317; with Example 9 @4 μg/ml) was less than 0.031 mg/L and the “MIC ATB combined with Example 9 @4 μg/ml” value (ECO 190317; with Example 9 at 4 μg/ml) was less than 0.031 mg/L. The “MIC ATB combined with Example 11 @8 μg/ml” value (ECO 190317; with Example 11 at 8 μg/ml) was less than 0.031 mg/L, the “MIC ATB combined with Example 12 @8 μg/ml” value (ECO 190317; with Example 12 at 8 μg/ml) was less than 0.031 mg/L and the “MIC ATB combined with Example 13 @8 μg/ml” value (ECO 190317; with Example 13 at 8 μg/ml) was less than 0.031 mg/L. For the same molecule, the “MIC ATB combined with Example 14 @8 μg/ml” value (ECO 190317; with Example 14 at 8 μg/ml) was less than 0.031 mg/L, the “MIC ATB combined with Example 15 @4 μgml” value (ECO 190317; with Example 15 at 4 μg/ml) was less than 0.031 mg/L and the “MIC ATB combined with Example 16 @4 μg/ml” value (ECO 190317; with Example 16 at 4 μg/ml) was less than 0.031 mg/L. For the same molecule, the MIC (ECO 190317; [1]) was greater than 1020 mg/L, the MIC (ECO 190317; substance alone, read-out: MIC) was greater than 1020 mg/L and the “MIC ATB combined with Example 1 @8 μg/ml” value (SAU 29213; with Example 1 @8 μg/ml) was 0.25 mg/L. For the same molecule, the “MIC ATB combined with Example 1 @8 μg/ml” value (SAU 29213; with Example 1 at 8 μg/ml) was 0.25 mg/L, the “MIC ATB combined with Example 9 @4 μg/ml” value (SAU 29213; with Example 9 @4 μg/ml) was less than 0.031 mg/L and the “MIC ATB combined with Example 9 @4 μg/ml” value (SAU 29213; with Example 9 at 4 μg/ml) was less than 0.031 mg/L. The “MIC ATB combined with Example 11 @8 μg/ml” value (SAU 29213; with Example 11 at 8 μg/ml) was less than 0.031 mg/L, the “MIC ATB combined with Example 12 @8 μg/ml” value (SAU 29213; with Example 12 at 8 μg/ml) was less than 0.031 mg/L and the “MIC ATB combined with Example 14 @8 μg/ml” value (SAU 29213; with Example 14 at 8 μg/ml) was less than 0.031 mg/L. The “MIC ATB combined with Example 15 @4 μgml” value (SAU 29213; with Example 15 at 4 μg/ml) was less than 0.031 mg/L, the “MIC ATB combined with Example 16 @4 μg/ml” value (SAU 29213; with Example 16 at 4 μg/ml) was less than 0.031 mg/L and the MIC (SAU 29213; Staphylococcus aureus, antibiotic alone, read-out: MIC ATB alone) was 2 mg/L. The “MIC ATB combined with Example 1 @8 μg/ml” value (ECL P99; with Example 1 @8 μg/ml) was less than 0.031 mg/L, the “MIC ATB combined with Example 1 @8 μg/ml” value (ECL P99; with Example 1 at 8 μg/ml) was less than 0.031 mg/L and the “MIC ATB combined with Example 7 @8 μgml” value (ECL P99; with Example 7 at 8 μg/ml) was greater than 32 mg/L. For the same molecule, the “MIC ATB combined with Example 9 @4 μg/ml” value (ECL P99; with Example 9 @4 μg/ml) was less than 0.031 mg/L, the “MIC ATB combined with Example 9 @4 μg/ml” value (ECL P99; with Example 9 at 4 μg/ml) was less than 0.031 mg/L and the “MIC ATB combined with Example 11 @8 μg/ml” value (ECL P99; with Example 11 at 8 μg/ml) was less than 0.031 mg/L. For the same molecule, the “MIC ATB combined with Example 12 @8 μg/ml” value (ECL P99; with Example 12 at 8 μg/ml) was less than 0.031 mg/L, the “MIC ATB combined with Example 13 @8 μg/ml” value (ECL P99; with Example 13 at 8 μg/ml) was greater than 32 mg/L and the “MIC ATB combined with Example 14 @8 μg/ml” value (ECL P99; with Example 14 at 8 μg/ml) was less than 0.031 mg/L. The “MIC ATB combined with Example 15 @4 μgml” value (ECL P99; with Example 15 at 4 μg/ml) was less than 0.031 mg/L, the “MIC ATB combined with Example 16 @4 μg/ml” value (ECL P99; with Example 16 at 4 μg/ml) was less than 0.031 mg/L and the MIC (ECL P99; [1]) was greater than 1020 mg/L. The MIC (ECL P99; substance alone, read-out: MIC) was greater than 1020 mg/L, the “MIC ATB combined with Example 1 @8 μg/ml” value (KPN BAA-1898; with Example 1 @8 μg/ml) was greater than 32 mg/L and the “MIC ATB combined with Example 1 @8 μg/ml” value (KPN BAA-1898; with Example 1 at 8 μg/ml) was greater than 32 mg/L. For the same molecule, the “MIC ATB combined with Example 7 @8 μgml” value (KPN BAA-1898; with Example 7 at 8 μg/ml) was greater than 32 mg/L, the “MIC ATB combined with Example 9 @4 μg/ml” value (KPN BAA-1898; with Example 9 @4 μg/ml) was less than 0.031 mg/L and the “MIC ATB combined with Example 9 @4 μg/ml” value (KPN BAA-1898; with Example 9 at 4 μg/ml) was less than 0.031 mg/L. The “MIC ATB combined with Example 11 @8 μg/ml” value (KPN BAA-1898; with Example 11 at 8 μg/ml) was less than 0.031 mg/L, the “MIC ATB combined with Example 12 @8 μg/ml” value (KPN BAA-1898; with Example 12 at 8 μg/ml) was less than 0.031 mg/L and the “MIC ATB combined with Example 13 @8 μg/ml” value (KPN BAA-1898; with Example 13 at 8 μg/ml) was greater than 32 mg/L. The “MIC ATB combined with Example 14 @8 μg/ml” value (KPN BAA-1898; with Example 14 at 8 μg/ml) was less than 0.031 mg/L, the “MIC ATB combined with Example 15 @4 μgml” value (KPN BAA-1898; with Example 15 at 4 μg/ml) was less than 0.031 mg/L and the “MIC ATB combined with Example 16 @4 μg/ml” value (KPN BAA-1898; with Example 16 at 4 μg/ml) was less than 0.031 mg/L. It also gave an MIC (KPN BAA-1898; [1]) greater than 1020 mg/L, an MIC (KPN BAA-1898; substance alone, read-out: MIC) greater than 1020 mg/L and an MIC (KPN 6299; [1]) greater than 1020 mg/L. For the same molecule, the MIC (KPN 6299; substance alone, read-out: MIC) was greater than 1020 mg/L and the “MIC ATB combined with Example 1 @8 μg/ml” value (KPN 6299; with Example 1 @8 μg/ml) was greater than 32 mg/L.
